Patent US20240373891A1, “SWEETENER BLEND COMPRISING THAUMATIN AND MOGROSIDES” (NOMAD BIOSCIENCE GMBH, priority 2021, published 2024)

B1: Thaumatin II: protein of SEQ ID NO: 2, purity greater than 90%, recombinantly expressed in plants (protein, listed as Thaumatococcus daniellii)
chain: ATFEIVNRCSYTVWAAASKGDAALDAGGRQLNSGESWTINVEPGTKGGKIWARTDCYFDDSGRGICRTGDCGGLLQCKRFGRPPTTLAEFSLNQYGKDYIDISNIKGFNVPMDFSPTTRGCRGVRCAADIVGQCPAKLKAPGGGCNDACTVFQTSEYCCTTGKCGPTEYSRFFKRLCPDAFSYVLDKPTTVTCPGSSNYRVTFCPTA

What was measured:
[1] = Round table evaluation of sweetness intensity (SEV) against sucrose reference samples; format: in vivo; settings: mean of test panelists
Description: • Round table evaluations were performed with test panelists. Equal sweet 5 SEV concentrations in neutral pH water were made for Thaumatin II (purity greater than 90%), Mogroside V, and Siamenoside I. These equal sweet solutions were also mixed at 50% of Thaumatin II and 50% Mogroside V or Siamenoside I and compared to the individual components. The components of the test compositions are described in the below tables. The mixed compositions were calculated using the Beidler mixture equation for the sweeteners. The Beidler mixture equation for sweeteners is as follows: […]
The concentration of each component in the mixture in ppm is divided by SEV (c/R) and is plotted against concentration, c. The […]. The y-intercept of the linear regression multiplied by Rmaxis the half-maximal sweetness concentration, 1/K. Rmax and 1/K are the two parameters used in the Beidler equation. Mixtures were tasted in comparison to reference samples for the panelists to determine SEV values. References samples were 3%, 4%, 5%, 6%, 7%, and 8% sucrose in neutral pH water. The test samples were served in 2 ounce soufflé cups (approximately 60 ml) coded with 3-digit codes at room temperature. A two minute wait period between samples was enforced. Water and unsalted crackers was available for the panelists to clear their palates before and during testing. Results were collected for calculating approximate SEV level of each test sample. • The test products analyzed in this experiment are described below in Table 1.

[2] = Round table qualitative assessment of quality of sweetness and undesirable attributes, scale 1-10; format: in vivo; settings: for Off taste (lower better) / Quality of sweetness (higher better): scale of 1-10, 6 panelists; for Quality of sweetness (higher better): 5% sucrose control
Description: • Round table evaluations were performed with 6 test panelists. Equal sweet 5 SEV concentrations in neutral pH water were made for Thaumatin II (purity greater than 90%), Mogroside V, and Siamenoside I. These equal sweet solutions were also mixed at 50% of Thaumatin II and 50% Mogroside V or Siamenoside I and compared to the individual components. All solutions were coded and blinded from panelists. Panelists were asked to provide a qualitative assessment on a scale of 1-10 of the quality of sweetness (10 being the highest quality of sweetness) and undesirable attributes (10 being most undesirable) of each solution using a 5% sucrose solution as a control.

[3] = summary of Example 2, compared with sucrose

Molecule	Sweetness intensity determined, SEV ([1]; 250 ppm in neutral pH water)	Off taste (lower better) ([2]; 250 ppm in neutral pH water)	Quality of sweetness (higher better) ([2]; 250 ppm in neutral pH water)	Sweetness quality and off taste, in words ([2]; summary of Example 2)	Sweetness onset, in words [2, 3]	Sweetness intensity determined, SEV ([1]; 7 ppm in neutral pH water)	Off taste (lower better) ([2]; 7 ppm in neutral pH water)	Quality of sweetness (higher better) ([2]; 7 ppm in neutral pH water)	Sweet aftertaste, in words [2, 3]
C[C@H](CC[C@@H](O[C@@H]1O[C@H](CO[C@@H]2O[C@H](CO)[C@@H](O)[C@H](O)[C@H]2O)[C@@H](O)[C@H](O)[C@H]1O[C@@H]1O[C@H](CO)[C@@H](O)[C@H](O)[C@H]1O)C(C)(C)O)[C@H]1CC[C@@]2(C)[C@@H]3CC=C4[C@@H](CC[C@H](O[C@@H]5O[C@H](CO)[C@@H](O)[C@H](O)[C@H]5O)C4(C)C)[C@]3(C)[C@H](O)C[C@]12C [Siamenoside I]	6.0 SEV	2.6	7.8	very mild off notes were detected	rapid				
C[C@H](CC[C@@H](O[C@@H]1O[C@H](CO[C@@H]2O[C@H](CO)[C@@H](O)[C@H](O)[C@H]2O)[C@@H](O)[C@H](O)[C@H]1O[C@@H]1O[C@H](CO)[C@@H](O)[C@H](O)[C@H]1O)C(C)(C)O)[C@H]1CC[C@@]2(C)[C@@H]3CC=C4[C@@H](CC[C@H](O[C@@H]5O[C@H](CO[C@@H]6O[C@H](CO)[C@@H](O)[C@H](O)[C@H]6O)[C@@H](O)[C@H](O)[C@H]5O)C4(C)C)[C@]3(C)[C@H](O)C[C@]12C [Mogroside V]	5.3 SEV	3.3	7.5	very mild off notes were detected	rapid				
B1				clean sweetness without any off taste	slightly delayed	4.8 SEV	4.9	5.3	lasted longer
